Results from patent publication US20100279976A1, “USE OF ARTEMISININ AND ITS DERIVATIVES IN CANCER THERAPY” (SHANGHAI INSTITUTES FOR BIOLOGICAL SCIENCES, CAS, priority 2009, published 2010).

Legend:
[1] = system: Hep3B hepatoma cells (p53 null); assay: MTT cell viability assay, Hep3B; type: cell-based; conditions: Homo sapiens, 48 h
Method: (§1) The effects of ART derivatives on the viability of the aforementioned cells may be determined using the MTT assay. Briefly, 2,000 cells per well were plated in triplicate in 96-well plates. After a 24-h incubation, the cells may be treated with varying concentrations of ART derivatives (0, 1, 5, 10, 25, 50, and 100 μmol/L) for 48 h. The MTT assay may be performed according to the manufacture's instruction and the resultant formazan crystals may be dissolved in DMSO (100 μL). The absorbance may be then recorded at 540 nm. The effects of ART derivatives on cell viability may be assessed by comparing the percent cell viability of the treated cells with the vehicle (DMSO)-treated control cells, which may be arbitrarily assigned at 100% viability. The experiment may be repeated thrice under the same conditions.

HepG2 cells [2] = assay: MTT growth inhibition time course, alone or with gemcitabine; type: cell-based; conditions: Homo sapiens, HepG2, 10 μmol/L
Method: In addition, the growth-inhibitory effects of ART and DHA and the effects in combination with gemcitabine in HepG2 and Hep3B cells may also be determined using the MTT assay. Briefly, 700 cells per well may be plated in 96-well culture plates. After a 24-h incubation, the cells may be treated with 10 μmol/L ART, 10 μmol/L DHA, 10 μg/L gemcitabine, 10 μmol/L ART plus 10 μg/L gemcitabine, or 10 μmol/L DHA plus 10 μg/L gemcitabine for various times (0, 24, 48, 72, and 96 h). The results reflect the average of three replicates.

HepG2 cells [3] = assay: Cell cycle analysis (propidium iodide, flow cytometry), HepG2; type: cell-based, human
Method: (§2) Cells (2×10^5) may be treated with ART and DHA (0, 1, 10, 25, and 50 μmol/L) as described above for 48 h. The harvested cells may be re-suspended in 200 μL of cold PBS, to which cold ethanol (600 μl) may be added, and the mixture may then be incubated for 2 h at 4° C. After centrifugation, the pellet may be washed with cold PBS, suspended in 500 μL PBS, and incubated with 50 μL RNase (20 μg/mL final concentration) for 30 min. The cells may be incubated with propidium iodide (50 μg/mL final concentration) for 30 min in the dark. The cell cycle distribution may be determined using a FACSAria instrument (BD Biosciences). The experiment may be repeated thrice under the same conditions.

Hep3B cells [4] = assay: Cell cycle analysis (propidium iodide, flow cytometry), Hep3B; type: cell-based, human; conditions: 48 h
Method: as §2

Hep3B cells [5] = assay: Annexin V-FITC apoptosis assay, Hep3B; type: cell-based, human
Method: ART- and DHA-induced apoptosis alone or in combination with gemcitabine in HepG2 and Hep3B cells or in combination with carboplatin in ovarian cancer cells may be determined by flow cytometry using the Annexin V-FITC Apoptosis Detection kit following the manufacturer's instructions. Briefly, 2×10^5 cells may be treated with ART and DHA ([…]) or 10 μg/L gemcitabine for 48 h. The cells may then be harvested, washed in PBS, and incubated with Annexin V and propidium iodide for staining in binding buffer at room temperature for 10 min in the dark. The stained cells may be analyzed using the FACSAria instrument.

HepG2 xenograft tumors = assay: HepG2 xenograft model in nude mice; type: in vivo; conditions: for tumor growth inhibition: HepG2 xenograft, 5 d/wk for 4 wk
Method: (§3) Female athymic nude mice (nu/nu; 4-6 wk of age) may be obtained from Shanghai Slac Laboratory Animal Co. Ltd. All animals may be fed with commercial diet and water ad libitum. The human HCC xenograft models in mice may be as follows. Briefly, HepG2 and Hep3B cells may be re-suspended in serum-free DMEM with Matrigel basement membrane matrix at a 5:1 ratio. The cell suspension may then be injected (7×10^6 cells; total volume, 0.2 mL) into the left inguinal area of the BALB/c nude mice. The animals may be monitored for activity and physical condition everyday, and the determination of body weight and measurement of tumor mass may be done every 3 d. Tumor mass may be determined by caliper measurement in two perpendicular diameters of the implant and calculated using the formula ½a×b^2, where a stands for the long diameter and b is the short diameter. The animal use and care protocol is approved by the Institutional Review Board of the Institute for Nutritional Sciences, Chinese Academy of Sciences.
(§4) Nude mice bearing HepG2 and Hep3B xenografts, randomly divided into various treatment and control groups (five mice per group), may be treated orally with either ART or DHA suspended in 5% sesame oil+95% saline, at a dose of 50 or 100 mg/kg/d, or a combination of ART or DHA with gemcitabine or with saline (as controls). In the mice receiving combination therapy, 80 mg/kg gemcitabine, representing one fifth of the reported most tolerated dose in mice, may be administered i.p. on days 7, 11, and 15 to avoid possible side effects and to illustrate potential chemo-sensitization effects in this combination regimen.

Hep3B xenograft tumors = assay: Hep3B xenograft model in nude mice; type: in vivo
Method: as §3, §4

[6] = system: OVCAR-3 ovarian carcinoma cells; assay: MTT cell viability assay, OVCAR-3; type: cell-based; conditions: Homo sapiens, OVCAR-3, 48 hrs
Description: (§5) Human ovarian IOSE144 (immortalized non-tumorigenic human ovarian surface epithelial cells) and ovarian carcinoma (A2780 and OVCAR-3) cells that may be obtained from the American Type Culture Collection (ATCC, Manassas, Va.) are gifts from Dr. Jing Fang (Institute for Nutritional Sciences, Shanghai, China). All cells may be cultured according to the ATCC instructions. The compounds (ARS, ART, ARM and DHA) may be dissolved in DMSO (<0.1%, final concentration).
as §1

[7] = system: IOSE144 immortalized non-tumorigenic ovarian surface epithelial cells; assay: MTT cell viability assay, IOSE144; type: cell-based; conditions: Homo sapiens, IOSE-144, IOSE144, 48 hrs
Description: as §5, §1

[8] = HepG2, 10 μmol/L, 48 h (control 63.05%)
[9] = 1 μmol/L, 48 h (0 μmol/L: 0.8%)
[10] = HepG2 xenograft tissue, Western blot

| Structure (SMILES) | IC20 [1] [µM] | IC50 [1] [µM] | IC80 [1] [µM] | inhibition at 10 µM (HepG2 cells [2]; 24 h, vs vehicle-treated cells) [%] | inhibition at 10 µM (HepG2 cells [2]; 48 h) [%] | inhibition at 10 µM (HepG2 cells [2]; 72 h) [%] | cells in the G1 phase (HepG2 cells [3]; [8]) [%] | cells in the G1 phase (HepG2 cells [3]; HepG2, 25 μmol/L, 48 h) [%] | cells in the G1 phase (HepG2 cells [3]; HepG2, 50 μmol/L, 48 h) [%] | cells in the G1 phase (Hep3B cells [4]; 1 μmol/L) [%] | cells in the G1 phase (Hep3B cells [4]; 10 μmol/L) [%] | cells in the G1 phase (Hep3B cells [4]; 25 μmol/L) [%] | cells in the G1 phase (Hep3B cells [4]; 50 μmol/L) [%] | apoptotic cells (Hep3B cells [5]; [9]) [%] | apoptotic cells (Hep3B cells [5]; 10 μmol/L, 48 h) [%] | apoptotic cells (Hep3B cells [5]; 25 μmol/L, 48 h) [%] | apoptotic cells (Hep3B cells [5]; 50 μmol/L, 48 h) [%] | tumor growth inhibition (HepG2 xenograft tumors; oral 50 mg/kg/d) [%] | tumor growth inhibition (HepG2 xenograft tumors; oral 100 mg/kg/d) [%] | IC20 [6] [µM] | further results |
| --- | --- | --- | --- | --- | --- | --- | --- | --- | --- | --- | --- | --- | --- | --- | --- | --- | --- | --- | --- | --- | --- |
| C[C@H]1[C@@H](O)O[C@@H]2O[C@@]3(C)CC[C@H]4[C@H](C)CC[C@@H]1[C@@]24OO3 [DHA, dihydroartemisinin] | 0.96 | 10.3 | 111 | 74 | 93 | 97 | 69.36 | 70.91 | 72.03 | 68.11 | 69.03 | 70.50 | 62.99 | 2.15 | 12.9 | 28.75 | 31.05 | 36.1 | 60.6 | 0.56 | toxic effects based on observations of bodyweight (HepG2 xenograft tumors; HepG2 xenograft mice, alone or in combination with gemcitabine): neither ART nor DHA causes any observable toxic effects; toxic effects (body weight) (Hep3B xenograft tumors; Hep3B xenograft mice): Neither compound causes any observable toxic effects; IC50 [6]: 6.58 µM; IC80 [6]: 77.4 µM; IC20 [7]: 1.84 µM; IC50 [7]: 106 µM; IC80 [7]: > 500 µM |
| C[C@@H]1CC[C@H]2[C@@H](C)C(=O)O[C@@H]3O[C@@]4(C)CC[C@@H]1[C@]32OO4 [ART, artemisinin] | 0.97 | 10.4 | 113 | 69 | 92 | 96 | 67.41 | 70.72 | 69.21 | 66.11 | 67.48 | 68.70 | 62.99 | 2.25 | 2.65 | 4.8 | 25.3 | 30.0 | 39.4 | 0.46 | G1-specific Cdks, cyclin D1, cyclin E, Cdk2, Cdk4, and E2F1 in tumor tissue (HepG2 xenograft tumors; [10]): decrease; MDM2 in tumor tissue (HepG2 xenograft tumors; [10]): decrease; activated caspase-3, cleaved PARP, Rb, p53, and the ratio of Bax/Bcl-2 in tumor tissue (HepG2 xenograft tumors; [10]): increases; p21 and p27 in tumor tissue (HepG2 xenograft tumors; [10]): increase; effect on tumor growth (Hep3B xenograft tumors; Hep3B xenograft, oral 50 and 100 mg/kg/d, alone): slight inhibitory effect on tumor growth; toxic effects (body weight) (Hep3B xenograft tumors; mouse, in vivo): Neither compound causes any observable toxic effects; IC50 [6]: 6.86 µM; IC80 [6]: 103 µM; IC20 [7]: 5.6 µM; IC50 [7]: > 500 µM; IC80 [7]: > 500 µM |
